The source of these data is US9315498B2, “Arlethynyl derivatives” (Hoffmann-La Roche Inc., priority 2010, dated 2016).

Molecules are shown by their SMILES.

The test has as its target human mGlu5a receptor (Homo sapiens (Human), UniProt P41594). In words: Intracellular Ca2+ mobilization assay (mGlu5 PAM). In kind it is cell-based. The following applies: for EC50: HEK-293 cells stably transfected with human mGlu5a, L-glutamate added at EC20 after pre-incubation with test compound, read-out: EC50 (nM) mGlu5PAM; for Emax: maximal response in % of the maximal stimulatory effect obtained with saturating concentrations of L-glutamate, read-out: Eff. (%). On the procedure:
A monoclonal HEK-293 cell line stably transfected with a cDNA encoding for the human mGlu5a receptor was generated; for the work with mGlu5 Positive Allosteric Modulators (PAMs), a cell line with low receptor expression levels and low constitutive receptor activity was selected to allow the differentiation of agonistic versus PAM activity. Cells were cultured according to standard protocols (Freshney, 2000) in Dulbecco's Modified Eagle Medium with high glucose supplemented with 1 mM glutamine, 10% (vol/vol) heat-inactivated bovine calf serum, Penicillin/Streptomycin, 50 μg/ml hygromycin and 15 μg/ml blasticidin (all cell culture reagents and antibiotics from Invitrogen, Basel, Switzerland).
About 24 hrs before an experiment, 5×10^4 cells/well were seeded in poly-D-lysine coated, black/clear-bottomed 96-well plates. The cells were loaded with 2.5 μM Fluo-4AM in loading buffer (1×HBSS, 20 mM HEPES) for 1 hr at 37° C. and washed five times with loading buffer. The cells were transferred into a Functional Drug Screening System 7000 (Hamamatsu, Paris, France), and 11 half logarithmic serial dilutions of test compound at 37° C. were added and the cells were incubated for 10-30 min. with on-line recording of fluorescence. Following this pre-incubation step, the agonist L-glutamate was added to the cells at a concentration corresponding to EC20 (typically around 80 μM) with on-line recording of fluorescence; in order to account for day-to-day variations in the responsiveness of cells, the EC20 of glutamate was determined immediately ahead of each experiment by recording of a full dose-response curve of glutamate.
Responses were measured as peak increase in fluorescence minus basal (i.e. fluorescence without addition of L-glutamate), normalized to the maximal stimulatory effect obtained with saturating concentrations of L-glutamate. Graphs were plotted with the % maximal stimulatory using XLfit, a curve fitting program that iteratively plots the data using Levenburg Marquardt algorithm. The single site competition analysis equation used was y=A+((B−A)/(1+((x/C)D))), where y is the % maximal stimulatory effect, A is the minimum y, B is the maximum y, C is the EC50, x is the log10 of the concentration of the competing compound and D is the slope of the curve (the Hill Coefficient). From these curves the EC50 (concentration at which half maximal stimulation was achieved), the Hill coefficient as well as the maximal response in % of the maximal stimulatory effect obtained with saturating concentrations of L-glutamate were calculated.
A depression of the signal observed after addition of the EC20 concentration of L-glutamate was indicative of an inhibitory activity of the test compound.

human mGlu5a receptor, sequence (P41594 other isoform, or with tags, fused parts or gaps): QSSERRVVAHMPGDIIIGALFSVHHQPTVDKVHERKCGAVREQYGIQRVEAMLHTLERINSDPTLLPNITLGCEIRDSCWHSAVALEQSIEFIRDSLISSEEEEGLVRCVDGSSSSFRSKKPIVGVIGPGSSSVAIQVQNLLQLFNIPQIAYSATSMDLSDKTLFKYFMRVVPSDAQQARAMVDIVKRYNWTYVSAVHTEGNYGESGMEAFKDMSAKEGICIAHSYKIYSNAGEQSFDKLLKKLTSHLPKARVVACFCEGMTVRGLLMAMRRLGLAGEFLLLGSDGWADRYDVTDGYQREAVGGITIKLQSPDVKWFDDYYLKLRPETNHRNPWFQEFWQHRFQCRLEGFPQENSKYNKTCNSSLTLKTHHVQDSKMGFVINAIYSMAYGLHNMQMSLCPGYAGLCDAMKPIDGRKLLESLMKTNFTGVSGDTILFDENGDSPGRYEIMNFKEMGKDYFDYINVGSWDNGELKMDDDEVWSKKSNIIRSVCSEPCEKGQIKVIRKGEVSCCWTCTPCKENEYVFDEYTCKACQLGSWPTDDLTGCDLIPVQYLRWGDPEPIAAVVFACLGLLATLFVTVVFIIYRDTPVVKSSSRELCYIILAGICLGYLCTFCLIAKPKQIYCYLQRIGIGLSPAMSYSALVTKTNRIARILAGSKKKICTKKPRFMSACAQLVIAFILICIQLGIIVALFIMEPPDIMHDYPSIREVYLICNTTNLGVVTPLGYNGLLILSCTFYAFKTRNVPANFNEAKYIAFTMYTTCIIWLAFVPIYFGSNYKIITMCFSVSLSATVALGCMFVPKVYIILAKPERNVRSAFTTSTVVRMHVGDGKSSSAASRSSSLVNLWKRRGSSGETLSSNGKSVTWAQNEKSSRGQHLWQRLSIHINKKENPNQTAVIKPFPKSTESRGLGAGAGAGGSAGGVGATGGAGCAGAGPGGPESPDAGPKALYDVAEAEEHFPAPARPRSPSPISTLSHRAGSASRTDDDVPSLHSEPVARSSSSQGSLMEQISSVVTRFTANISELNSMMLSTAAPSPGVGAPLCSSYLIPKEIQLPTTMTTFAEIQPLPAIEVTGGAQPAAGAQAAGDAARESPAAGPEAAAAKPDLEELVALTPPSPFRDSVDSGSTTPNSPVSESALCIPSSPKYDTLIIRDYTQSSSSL

As to `CC1(C)CCC(=O)N(c2ccc(C#Cc3ccccc3)cn2)C1` [Example 42, 5,5-Dimethyl-5′-phenylethynyl-3,4,5,6-tetrahydro-[1,2′]bipyridinyl-2-one], the EC50 was 16 nM and the Emax stood at 139%.
On the same counts, the results for `CN1C(=O)N(c2ncc(C#Cc3ccc(F)cc3)cn2)CC1(C)C` [Example 125, 1-[5-(4-Fluoro-phenylethynyl)-pyrimidin-2-yl]-3,4,4-trimethyl-imidazolidin-2-one] are 13 nM and 44%.
As to `CC1(C)CC(=O)N(c2ccc(C#Cc3cccnc3)cn2)C1` [Example 38, 4,4-Dimethyl-1-(5-pyridin-3-ylethynyl-pyridin-2-yl)-pyrrolidin-2-one], the EC50 was 33 nM and the Emax is 147%.
Turning to `CC1(C)CCN(c2ccc(C#Cc3ccccc3)nn2)C(=O)O1` [Example 153, 6,6-Dimethyl-3-(6-(phenylethynyl)pyridazin-3-yl)-1,3-oxazinan-2-one], the EC50 turned out to be 14 nM and the Emax amounted to 86%.
Regarding `CN1C(=O)N(c2ccc(C#Cc3ccc(F)cc3)cn2)CCC1(C)C` [Example 69, 1-[5-(4-Fluoro-phenylethynyl)-pyridin-2-yl]-3,4,4-trimethyl-tetrahydro-pyrimidin-2-one], the EC50 came to 49 nM and the Emax is 107%.
As to `COC1C(=O)N(c2ncc(C#Cc3cccc(F)c3)cn2)CC1(C)C` (racemic) [Example 130, (RS)-1-[5-(3-Fluoro-phenylethynyl)-pyrimidin-2-yl]-3-methoxy-4,4-dimethyl-pyrrolidin-2-one], the EC50 came to 41 nM and the Emax was 74%.
The corresponding values for `CN1C(=O)N(c2cnc(C#Cc3cccnc3)cn2)CC1(C)C` [Example 157, 3,4,4-Trimethyl-1-(5-(pyridin-3-ylethynyl)pyrazin-2-yl)imidazolidin-2-one] are 206 nM and 34%.
For the compound `CC1(C)CCN(c2ncc(C#Cc3cccc(F)c3)cn2)C(=O)C1` [Example 135, 1-[5-(3-Fluoro-phenylethynyl)-pyrimidin-2-yl]-4,4-dimethyl-piperidin-2-one], the EC50 was 35 nM and the Emax was 47%.
On the same counts, the results for `CN1C(=O)N(c2ccc(C#Cc3ccccc3)cn2)CC1C(C)(C)C` (racemic) [Example 107, (RS)-4-tert-Butyl-3-methyl-1-(5-phenylethynyl-pyridin-2-yl)-imidazolidin-2-one] are 59 nM and 106%.
Regarding `CO[C@@H]1C(=O)N(c2ncc(C#Cc3cc(F)ccc3F)cn2)CC1(C)C` (single isomer, unassigned) [Example 133, (R or S)-1-[5-(2,5-Difluoro-phenylethynyl)-pyrimidin-2-yl]-3-methoxy-4,4-dimethyl-pyrrolidin-2-one], the EC50 was found to be 57 nM and the Emax amounted to 49%.
Consider `CC1CN(c2ccc(C#Cc3ccccc3)cn2)C(=O)CO1` (racemic) [Example 171, (RS)-6-Methyl-4-(5-phenylethynyl-pyridin-2-yl)-morpholin-3-one], for which the EC50 worked out at 88 nM and the Emax is 73%.
On the same counts, the results for `CC1(C)CN(c2ccc(C#Cc3ccccc3)cn2)C(=O)O1` [Example 5, 5,5-Dimethyl-3-(5-phenylethynyl-pyridin-2-yl)-oxazolidin-2-one] are 7 nM and 77%.
As to `CN1C(=O)N(c2cnc(C#Cc3ccccc3)cn2)CCC1(C)C` [Example 165, 3,4,4-Trimethyl-1-(5-(phenylethynyl)pyrazin-2-yl)tetrahydropyrimidin-2(1H)-one], the EC50 is 36 nM and the Emax was 55%.
For the compound `CC1(C)CCN(c2ccc(C#Cc3ccc(F)cc3)cn2)C(=O)C1` [Example 91, 5′-(4-Fluoro-phenylethynyl)-4,4-dimethyl-3,4,5,6-tetrahydro-[1,2′]bipyridinyl-2-one], the EC50 was determined as 67 nM and the Emax was determined as 89%.
On the same counts, the results for `CN1C(=O)N(c2ccc(C#Cc3ccccc3)nn2)[C@@H]2CCC[C@@H]21` (racemic) [Example 170, (3aRS,6aSR)-1-Methyl-3-(6-phenylethynyl-pyridazin-3-yl)-hexahydro-cyclopentaimidazol-2-one] are 13 nM and 105%.
For `CC1(C)CN(c2ccc(C#Cc3ccccc3)cn2)C(=O)CO1` [Example 172, 6,6-Dimethyl-4-(5-phenylethynyl-pyridin-2-yl)-morpholin-3-one], the EC50 came to 29 nM and the Emax is 82%.
For `Cc1cccc(C#Cc2ccc(N3CCC(C)(C)OC3=O)nc2)c1` [Example 78, 6,6-Dimethyl-3-(5-m-tolylethynyl-pyridin-2-yl)-[1,3]oxazinan-2-one], the EC50 was determined as 24 nM and the Emax is 72%.
The corresponding values for `CC1(C)CCN(c2cnc(C#Cc3ccccc3)cn2)C(=O)N1` [Example 164, 4,4-Dimethyl-1-(5-(phenylethynyl)pyrazin-2-yl)tetrahydropyrimidin-2(1H)-one] are 329 nM and 89%.
Consider `CC1(C)CN(c2ncc(C#Cc3ccccc3)cc2F)C(=O)O1` [Example 1, 3-(3-Fluoro-5-phenylethynyl-pyridin-2-yl)-5,5-dimethyl-oxazolidin-2-one], for which the EC50 was determined as 30 nM and the Emax came out at 68%.
As for `CN1C(=O)N(c2ccc(C#Cc3cccc(F)c3)cn2)CC1(C)C` [Example 53, 1-[5-(3-Fluoro-phenylethynyl)-pyridin-2-yl]-3,4,4-trimethyl-imidazolidin-2-one], the EC50 amounted to 29 nM and the Emax was 103%.
On the same counts, the results for `COC1CN(c2ccc(C#Cc3cccc(F)c3)cn2)C(=O)OC1(C)C` (racemic) [Example 169, (RS)-3-[5-(3-Fluoro-phenylethynyl)-pyridin-2-yl]-5-methoxy-6,6-dimethyl-[1,3]oxazinan-2-one] are 13 nM and 52%.
Take `CC1(C)CCN(c2ccc(C#Cc3ccccc3)cn2)C(=O)C1` [Example 87, 4,4-Dimethyl-5′-phenylethynyl-3,4,5,6-tetrahydro-[1,2′]bipyridinyl-2-one]: the concentration for a half-maximal effect (EC50) was determined as 12 nM and the Emax was 89%.
For the compound `CC1(C)CC(=O)N(c2ccc(C#Cc3cncc(F)c3)cn2)C1` [Example 37, 1-[5-(5-Fluoro-pyridin-3-ylethynyl)-pyridin-2-yl]-4,4-dimethyl-pyrrolidin-2-one], the EC50 is 22 nM and the Emax was 96%.
As for `CC(C)N1C(=O)N(c2ncc(C#Cc3ccccc3)cn2)CC1(C)C` [Example 140, 3-Isopropyl-4,4-dimethyl-1-(5-phenylethynyl-pyrimidin-2-yl)-imidazolidin-2-one], the EC50 stood at 28 nM and the Emax was found to be 58%.
Regarding `CN1CC(C)(C)CN(c2ccc(C#Cc3ccccc3)cn2)C1=O` [Example 26, 1,5,5-Trimethyl-3-(5-phenylethynyl-pyridin-2-yl)-tetrahydro-pyrimidin-2-one], the Emax came to 131%.
As for `O=C1OC2(CCCC2)CN1c1ccc(C#Cc2ccccc2)cn1` [Example 11, 3-(5-Phenylethynyl-pyridin-2-yl)-1-oxa-3-aza-spiro[4.4]nonan-2-one], the EC50 was determined as 39 nM and the Emax was determined as 52%.
On the same counts, the results for `O=C1OC2(CC2)CN1c1ccc(C#Cc2cccnc2)cn1` [Example 36, 6-(5-Pyridin-3-ylethynyl-pyridin-2-yl)-4-oxa-6-aza-spiro[2.4]heptan-5-one] are 58 nM and 80%.
The corresponding values for `CC1(C)CC(=O)N(c2cnc(C#Cc3cccc(F)c3)cn2)C1` [Example 160] are 29 nM and 39%.
For the compound `O=C1O[C@H]2CCC[C@H]2N1c1ccc(C#Cc2ccccc2)cn1` (racemic) [Example 22, (3aRS,6aSR)-3-(5-Phenylethynyl-pyridin-2-yl)-hexahydro-cyclopentaoxazol-2-one], the EC50 worked out at 14 nM and the Emax turned out to be 74%.
Turning to `CN1C(=O)N(c2ncc(C#Cc3ccccc3)cn2)CC12CC2` [Example 147, 4-Methyl-6-(5-phenylethynyl-pyrimidin-2-yl)-4,6-diaza-spiro[2.4]heptan-5-one], the EC50 was determined as 25 nM and the Emax is 36%.
`CN1C(=O)N(c2cnc(C#Cc3ccccc3)cn2)CC1(C)C` [Example 156, 3,4,4-Trimethyl-1-(5-(phenylethynyl)pyrazin-2-yl)imidazolidin-2-one]: the EC50 amounted to 24 nM and the Emax was 58%.
